From US20250368666A1, “INDAZOLE COMPOUNDS” (TYRA BIOSCIENCES, INC., priority 2022, published 2025)
Where two headings read alike, the source gives them in different places.

Columns and labels:
[1] = tested on: KATO-III cell line (FGFR2 amplification); test: Cancer cell line cell viability assay (Cell Titer-Glo), 72 hr; type: cell-based; details: Homo sapiens
Method in brief: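 Cells seeded at 5,000-20,000/well, incubated overnight, then treated with a 9-dose, 4-fold dilution series from 3 μM in triplicate at 37° C, 5% CO2. Viability read by Cell Titer-Glo 2.0 luminescence as percent of DMSO control; IC50 from 4-parameter variable-slope sigmoidal fit.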

[2] = tested on: KG-1 cell line (FGFR 1-fusion); test: as above; type: cell-based; details: Homo sapiens
Method in brief: (§1)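 ATP-based luminescence (Cell Titer-Glo 2.0) measured viability after 72 h (KG-1, RT112/84) or 120 h (MDA-MB-453, HuH7) compound exposure. Dosing was nine 4-fold steps starting at 3 μM, in triplicate, on overnight-plated cells. IC50 came from a variable-slope 4-parameter fit of % DMSO control.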

[3] = tested on: RT112/84 cell line (FGFR3-fusion); test: as above; type: cell-based; details: Homo sapiens
Method in brief: as §1

FGFR4 = target: T1, FGFR4 (Homo sapiens, UniProt P22455); test: Kinase binding assay (kinase-tagged T7 phage, affinity beads, qPCR), Kd
T1 construct: made in house; host or cells: E. coli (BL21-derived), T7 phage
Method in brief: (§2)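 Phage-tagged kinase capture on small-molecule affinity resin, compound competition, qPCR quantitation; Kd from Levenberg-Marquardt Hill fit.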

FGFR2 = target: T2, FGFR2 (Homo sapiens, UniProt P21802); test: as above
T2 construct: made in house; host or cells: E. coli (BL21-derived), T7 phage
Method in brief: as §2

FGFR3 = target: T3, FGFR3 (Homo sapiens, UniProt P22607); test: as above
T3 construct: made in house; host or cells: E. coli (BL21-derived), T7 phage
Method in brief: as §2

FGFR1 = target: T4, FGFR1 (Homo sapiens, UniProt P11362); test: as above
T4 construct: made in house; host or cells: E. coli (BL21-derived), T7 phage
Method in brief: as §2

FGFR3 (V555M) = target: T5, FGFR3 (V555M) (Homo sapiens, UniProt P22607, V555M); test: as above
T5 construct: made in house; host or cells: E. coli (BL21-derived), T7 phage
Method in brief: as §2

[4] = KG-1, KG-1 cell line (FGFR1-fusion)
[5] = RT112/84, RT112/84 cell line (FGFR3-fusion)
[6] = V555M mutant, read-out: FGFR3 (V555M) (Kd nM)
[7] = RT112/84 cell line (FGFR3-fusion)

T3 sequence (P22607 23-806): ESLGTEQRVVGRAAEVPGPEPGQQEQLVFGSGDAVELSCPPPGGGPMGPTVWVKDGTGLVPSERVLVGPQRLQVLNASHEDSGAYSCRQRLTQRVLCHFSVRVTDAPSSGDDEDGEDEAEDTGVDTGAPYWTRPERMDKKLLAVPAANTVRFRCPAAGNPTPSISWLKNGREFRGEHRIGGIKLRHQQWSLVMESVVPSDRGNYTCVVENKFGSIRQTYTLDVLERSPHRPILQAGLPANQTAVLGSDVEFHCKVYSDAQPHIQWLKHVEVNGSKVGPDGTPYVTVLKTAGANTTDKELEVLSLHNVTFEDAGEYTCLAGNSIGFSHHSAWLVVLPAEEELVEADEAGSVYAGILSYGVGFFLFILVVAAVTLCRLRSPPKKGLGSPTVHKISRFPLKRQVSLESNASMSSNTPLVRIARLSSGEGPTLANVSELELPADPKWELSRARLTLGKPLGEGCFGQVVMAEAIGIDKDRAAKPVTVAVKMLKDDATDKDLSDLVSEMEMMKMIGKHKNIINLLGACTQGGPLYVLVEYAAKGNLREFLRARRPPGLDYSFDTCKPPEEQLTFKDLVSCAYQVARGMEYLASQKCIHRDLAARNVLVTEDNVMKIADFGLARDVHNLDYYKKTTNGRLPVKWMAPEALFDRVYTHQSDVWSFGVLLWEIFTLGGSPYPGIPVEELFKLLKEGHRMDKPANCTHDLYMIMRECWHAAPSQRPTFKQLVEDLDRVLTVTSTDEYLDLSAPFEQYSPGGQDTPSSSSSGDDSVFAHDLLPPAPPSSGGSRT
T2 sequence (P21802 22-821): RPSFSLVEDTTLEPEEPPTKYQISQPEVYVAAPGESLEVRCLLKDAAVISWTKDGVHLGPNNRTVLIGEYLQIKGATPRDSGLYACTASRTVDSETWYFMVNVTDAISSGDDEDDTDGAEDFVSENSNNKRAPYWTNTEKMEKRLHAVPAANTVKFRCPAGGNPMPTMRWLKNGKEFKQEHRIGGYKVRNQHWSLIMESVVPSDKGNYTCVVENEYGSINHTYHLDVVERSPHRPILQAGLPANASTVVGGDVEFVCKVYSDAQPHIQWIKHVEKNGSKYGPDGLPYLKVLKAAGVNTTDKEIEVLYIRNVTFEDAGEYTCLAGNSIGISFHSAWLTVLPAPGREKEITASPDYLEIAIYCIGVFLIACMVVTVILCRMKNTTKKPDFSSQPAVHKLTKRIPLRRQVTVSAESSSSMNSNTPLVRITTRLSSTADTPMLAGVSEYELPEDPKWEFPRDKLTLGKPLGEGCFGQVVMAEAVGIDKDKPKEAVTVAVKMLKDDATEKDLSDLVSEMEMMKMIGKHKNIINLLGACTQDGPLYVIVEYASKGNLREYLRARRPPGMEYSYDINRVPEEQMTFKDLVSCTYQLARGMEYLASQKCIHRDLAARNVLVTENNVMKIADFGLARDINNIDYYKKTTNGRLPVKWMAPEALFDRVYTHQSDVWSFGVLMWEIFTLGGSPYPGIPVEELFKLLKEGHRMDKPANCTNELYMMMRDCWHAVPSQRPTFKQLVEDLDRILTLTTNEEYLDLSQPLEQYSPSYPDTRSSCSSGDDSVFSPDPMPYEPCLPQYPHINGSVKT
T1 sequence (P22455 22-802): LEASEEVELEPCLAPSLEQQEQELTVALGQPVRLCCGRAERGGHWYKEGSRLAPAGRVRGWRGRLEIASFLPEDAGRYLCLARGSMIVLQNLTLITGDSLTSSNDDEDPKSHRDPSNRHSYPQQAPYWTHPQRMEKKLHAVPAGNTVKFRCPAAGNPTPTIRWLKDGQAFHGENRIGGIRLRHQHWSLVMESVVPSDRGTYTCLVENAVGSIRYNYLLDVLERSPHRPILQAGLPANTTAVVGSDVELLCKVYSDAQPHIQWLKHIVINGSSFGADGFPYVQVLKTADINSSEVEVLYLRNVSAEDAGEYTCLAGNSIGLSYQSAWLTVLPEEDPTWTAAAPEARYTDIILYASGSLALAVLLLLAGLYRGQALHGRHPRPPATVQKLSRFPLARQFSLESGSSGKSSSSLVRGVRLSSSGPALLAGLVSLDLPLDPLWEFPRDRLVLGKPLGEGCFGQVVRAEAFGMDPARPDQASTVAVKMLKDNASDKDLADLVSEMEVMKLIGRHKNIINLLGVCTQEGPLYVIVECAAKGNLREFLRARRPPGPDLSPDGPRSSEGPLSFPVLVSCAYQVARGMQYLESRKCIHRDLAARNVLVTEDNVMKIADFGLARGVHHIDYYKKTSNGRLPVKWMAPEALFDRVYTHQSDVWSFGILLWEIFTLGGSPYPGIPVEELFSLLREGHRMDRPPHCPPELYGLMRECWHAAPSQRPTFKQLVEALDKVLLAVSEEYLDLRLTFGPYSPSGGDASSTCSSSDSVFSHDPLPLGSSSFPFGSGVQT
T4 sequence (P11362 22-822): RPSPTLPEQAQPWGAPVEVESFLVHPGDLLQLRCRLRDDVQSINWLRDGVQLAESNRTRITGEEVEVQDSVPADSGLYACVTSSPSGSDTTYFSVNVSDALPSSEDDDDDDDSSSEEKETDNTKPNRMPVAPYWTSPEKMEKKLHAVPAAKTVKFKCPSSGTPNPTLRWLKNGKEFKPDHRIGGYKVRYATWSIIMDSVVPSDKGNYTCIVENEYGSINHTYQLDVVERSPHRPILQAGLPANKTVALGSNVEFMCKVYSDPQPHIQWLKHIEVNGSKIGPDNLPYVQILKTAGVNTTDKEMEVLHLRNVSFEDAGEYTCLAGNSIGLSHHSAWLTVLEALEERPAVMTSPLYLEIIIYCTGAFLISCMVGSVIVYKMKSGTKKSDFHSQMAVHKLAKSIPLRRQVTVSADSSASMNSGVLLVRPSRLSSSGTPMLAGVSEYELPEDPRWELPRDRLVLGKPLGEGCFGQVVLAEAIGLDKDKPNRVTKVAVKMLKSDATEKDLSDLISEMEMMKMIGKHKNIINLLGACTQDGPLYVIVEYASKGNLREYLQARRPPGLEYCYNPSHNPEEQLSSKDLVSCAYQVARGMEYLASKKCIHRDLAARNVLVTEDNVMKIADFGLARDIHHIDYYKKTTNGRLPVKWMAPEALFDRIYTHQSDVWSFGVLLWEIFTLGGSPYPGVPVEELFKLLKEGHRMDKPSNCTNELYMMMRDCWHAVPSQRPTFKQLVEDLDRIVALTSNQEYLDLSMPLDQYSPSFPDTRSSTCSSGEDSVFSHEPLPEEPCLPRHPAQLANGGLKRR
T5 sequence (P22607 23-806 V555M): as the sequence (P22607 23-806) above, with V533M counted along it

IC50 ([1]; KATO III) [nM] | IC50 [2, 4] [nM] | IC50 [3, 5] [nM] | Kd (FGFR4; read-out: FGFR4 (Kd nM)) [nM] | Kd (FGFR2; read-out: FGFR2 (Kd nM)) [nM] | Kd (FGFR3; read-out: FGFR3 (Kd nM)) [nM] | Kd (FGFR1; read-out: FGFR1 (Kd nM)) [nM] | Kd (FGFR3 (V555M); [6]) [nM] | SMILES | IC50 [1] [nM] | IC50 ([2]; KG-1 cell line (FGFR1-fusion)) [nM] | IC50 [3, 7] [nM] | Kd (FGFR4) [nM] | Kd (FGFR2; FGFR2 (Kd nM)) [nM] | Kd (FGFR3) [nM] | Kd (FGFR1) [nM] | Kd (FGFR3 (V555M)) [nM]
50 to 200 | 50 to 200 | 0.1 to 50 | 1 to 50 | 1 to 50 | 1 to 50 | 1 to 50 | 1 to 50 | C[C@@H](Oc1cc2c(-c3cnc(N4CC(C)(NCC5CC5)C4)c(F)c3)n[nH]c2cc1F)c1c(Cl)cncc1Cl [Example 132, N-(cyclopropylmethyl)-1-[5-[5-[(1R)-1-(3,5-dichloro-4-pyridyl)ethoxy]-6-fluoro-1H-indazol-3-yl]-3-fluoro-2-pyridyl]-3-methyl-azetidin-3-amine] |  |  |  |  |  |  |  | 
0.1 to 50 | 0.1 to 50 | 0.1 to 50 | 1 to 50 | 1 to 50 | 1 to 50 | 1 to 50 | 1 to 50 | CCNC1(C)CN(c2ncc(-c3n[nH]c4ccc(O[C@H](C)c5c(Cl)cncc5Cl)cc34)cc2F)C1 [Example 149, 1-[5-[5-[(1R)-1-(3,5-dichloro-4-pyridyl)ethoxy]-1H-indazol-3-yl]-3-fluoro-2-pyridyl]-N-ethyl-3-methyl-azetidin-3-amine] |  |  |  |  |  |  |  | 
50 to 200 | 50 to 200 | 0.1 to 50 | 1 to 50 | 1 to 50 | 1 to 50 | 1 to 50 | 1 to 50 | C[C@@H](Oc1ccc2[nH]nc(-c3cnc(N4CC(C)(O)C4)c(F)c3)c2c1)c1c(Cl)cncc1Cl [Example 154, 1-[5-[5-[(1R)-1-(3,5-dichloro-4-pyridyl)ethoxy]-1H-indazol-3-yl]-3-fluoro-2-pyridyl]-3-methyl-azetidin-3-ol] |  |  |  |  |  |  |  | 
0.1 to 50 | 50 to 200 | 0.1 to 50 | 1 to 50 | 1 to 50 | 1 to 50 | 1 to 50 | 1 to 50 | C[C@@H](Oc1cc2c(-c3cnc(N4CC(C)(N5CCOCC5)C4)c(F)c3)n[nH]c2cc1F)c1c(Cl)cncc1Cl [Example 158, (R)-4-(1-(5-(5-(1-(3,5-Dichloropyridin-4-yl)ethoxy)-6-fluoro-1H-indazol-3-yl)-3-fluoropyridin-2-yl)-3-methylazetidin-3-yl)morpholine] |  |  |  |  |  |  |  | 
0.1 to 50 | 0.1 to 50 | 0.1 to 50 | 1 to 50 | 1 to 50 | 1 to 50 | 1 to 50 | 1 to 50 | COc1cc2[nH]nc(-c3cnc(N4CC(C)(NCC(C)(C)O)C4)c(F)c3)c2cc1O[C@H](C)c1c(Cl)cncc1Cl [Example 159] |  |  |  |  |  |  |  | 
0.1 to 50 | 0.1 to 50 | 0.1 to 50 | 1 to 50 | 1 to 50 | 1 to 50 | 1 to 50 | 1 to 50 | COc1cc2[nH]nc(-c3cnc(N4CC(C)(NC[C@H](C)O)C4)c(F)c3)c2cc1O[C@H](C)c1c(Cl)cncc1Cl [Example 160, (S)-1-((1-(5-(5-((R)-1-(3,5-dichloropyridin-4-yl)ethoxy)-6-methoxy-1H-indazol-3-yl)-3-fluoropyridin-2-yl)-3-methylazetidin-3-yl)amino)propan-2-ol] |  |  |  |  |  |  |  | 
0.1 to 50 | 0.1 to 50 | 0.1 to 50 | 1 to 50 | 1 to 50 | 1 to 50 | 1 to 50 | 1 to 50 | COc1cc2[nH]nc(-c3cnc(N4CC(C)(NC[C@@H](C)O)C4)c(F)c3)c2cc1O[C@H](C)c1c(Cl)cncc1Cl [Example 161, (R)-1-((1-(5-(5-((R)-1-(3,5-dichloropyridin-4-yl)ethoxy)-6-methoxy-1H-indazol-3-yl)-3-fluoropyridin-2-yl)-3-methylazetidin-3-yl)amino)propan-2-ol] |  |  |  |  |  |  |  | 
> 1000 | > 1000 | > 1000 | 300 to 1000 | > 1000 | 50 to 300 | > 1000 | 50 to 300 | C[C@@H](Oc1ccc2[nH]nc(-c3cnc(N4CC(C)(NCC(C)(C)O)C4)c(F)c3)c2c1F)c1c(Cl)cncc1Cl [Example 170, (R)-1-((1-(5-(5-(1-(3,5-dichloro-pyridin-4-yl)ethoxy)-4-fluoro-1H-indazol-3-yl)-3-fluoropyridin-2-yl)-3-methylazetidin-3-yl)amino)-2-methylpropan-2-ol] |  |  |  |  |  |  |  | 
0.1 to 50 | 0.1 to 50 | 0.1 to 50 | 1 to 50 | 1 to 50 | 1 to 50 | 1 to 50 | 1 to 50 | CNC1(C)CN(c2ncc(-c3n[nH]c4ccc(O[C@H](C)c5c(Cl)cncc5Cl)cc34)cc2F)C1 [Example 171, (R)-1-(5-(5-(1-(3,5-dichloropyridin-4-yl)ethoxy)-1H-indazol-3-yl)-3-fluoropyridin-2-yl)-N,3-dimethylazetidin-3-amine] |  |  |  |  |  |  |  | 
50 to 200 | 50 to 200 | 50 to 200 | 1 to 50 | 1 to 50 | 1 to 50 | 1 to 50 | 1 to 50 | Cc1ncc(Cl)c([C@@H](C)Oc2ccc3[nH]nc(-c4cnc(N5CC(C)(NCC6CC6)C5)c(F)c4)c3c2)c1Cl [Example 209, N-(cyclo-propylmethyl)-1-[5-[5-[(1R)-1-(3,5-dichloro-2-methyl-4-pyridyl)ethoxy]-1H-indazol-3-yl]-3-fluoro-2-pyridyl]-3-methyl-azetidin-3-amine] |  |  |  |  |  |  |  | 
50 to 200 | 200 to 1000 | 0.1 to 50 | 1 to 50 | 1 to 50 | 1 to 50 | 50 to 300 | 1 to 50 | Cc1ncc(Cl)c([C@@H](C)Oc2ccc3[nH]nc(-c4cnc(N5CC(C)(CS(C)(=O)=O)C5)c(F)c4)c3c2)c1Cl [Example 210, 5-[(1R)-1-(3,5-dichloro-2-methyl-4-pyridyl)ethoxy]-3-[5-fluoro-6-[3-methyl-3-(methylsulfonyl-methyl)azetidin-1-yl]-3-pyridyl]-1H-indazole] |  |  |  |  |  |  |  | 
0.1 to 50 | 50 to 200 | 0.1 to 50 | 1 to 50 | 1 to 50 | 1 to 50 | 1 to 50 | 1 to 50 | C[C@@H]1CN(C2(C)CN(c3ccc(-c4n[nH]c5ccc(O[C@H](C)c6c(Cl)cncc6Cl)cc45)cn3)C2)CCO1 [Example 211, (R)-4-(1-(5-(5-((R)-1-(3,5-dichloropyridin-4-yl)ethoxy)-1H-indazol-3-yl)pyridin-2-yl)-3-methylazetidin-3-yl)-2-methylmorpholine] |  |  |  |  |  |  |  | 
0.1 to 50 | 50 to 200 | 0.1 to 50 | 1 to 50 | 1 to 50 | 1 to 50 | 1 to 50 | 1 to 50 | C[C@H]1CN(C2(C)CN(c3ccc(-c4n[nH]c5ccc(O[C@H](C)c6c(Cl)cncc6Cl)cc45)cn3)C2)CCO1 [Example 212, (S)-4-(1-(5-(5-((R)-1-(3,5-dichloropyridin-4-yl)ethoxy)-1H-indazol-3-yl)pyridin-2-yl)-3-methylazetidin-3-yl)-2-methylmorpholine] |  |  |  |  |  |  |  | 
50 to 200 | 200 to 1000 | 0.1 to 50 | 1 to 50 | 1 to 50 | 1 to 50 | 1 to 50 | 1 to 50 | C[C@@H]1CN(C2(C)CN(c3ncc(-c4n[nH]c5ccc(O[C@H](C)c6c(Cl)cncc6Cl)cc45)cc3F)C2)CCO1 [Example 213, (R)-4-(1-(5-(5-((R)-1-(3,5-dichloropyridin-4-yl)ethoxy)-1H-indazol-3-yl)-3-fluoropyridin-2-yl)-3-methylazetidin-3-yl)-2-methylmorpholine] |  |  |  |  |  |  |  | 
 |  |  |  |  |  |  |  | COP(=O)(CC1(C)CN(c2ncc(-c3n[nH]c4ccc(O[C@H](C)c5c(Cl)cncc5Cl)cc34)cc2F)C1)OC [Example 215, (R)-dimethyl ((1-(5-(5-(1-(3,5-dichloropyridin-4-yl)ethoxy)-1H-indazol-3-yl)-3-fluoropyridin-2-yl)-3-methylazetidin-3-yl)methyl)phos-phonate] | 50 to 200 | 50 to 200 | 0.1 to 50 | 1 to 50 | 1 to 50 | 1 to 50 | 1 to 50 | 1 to 50

SMILES | IC50 ([1]; KATO III) [nM] | IC50 [2, 4] [nM] | IC50 [3, 5] [nM] | Kd (FGFR4; read-out: FGFR4 (Kd nM)) [nM] | Kd (FGFR2; read-out: FGFR2 (Kd nM)) [nM] | Kd (FGFR3; read-out: FGFR3 (Kd nM)) [nM] | Kd (FGFR1; read-out: FGFR1 (Kd nM)) [nM] | Kd (FGFR3 (V555M); [6]) [nM] | IC50 [1] [nM] | IC50 ([2]; KG-1 cell line (FGFR1-fusion)) [nM] | IC50 [3, 7] [nM] | Kd (FGFR4) [nM] | Kd (FGFR2; FGFR2 (Kd nM)) [nM] | Kd (FGFR3) [nM] | Kd (FGFR1) [nM] | Kd (FGFR3 (V555M)) [nM]
COP(=O)(CC1(C)CN(c2ccc(-c3n[nH]c4ccc(O[C@H](C)c5c(Cl)cncc5Cl)cc34)cn2)C1)OC [Example 214, (R)-dimethyl ((1-(5-(5-(1-(3,5-dichloropyridin-4-yl)ethoxy)-1H-indazol-3-yl)pyridin-2-yl)-3-methylazetidin-3-yl)methyl)phosphonate] |  |  |  | 1 to 50 | 1 to 50 | 1 to 50 | 1 to 50 | 1 to 50 | 0.1 to 50 | 50 to 200 | 0.1 to 50 |  |  |  |  | 
